The source of these data is patent US11584736B2, “Heterocyclic P2Y14 receptor antagonists” (The United States of America, as represented by the …, priority 2018, dated 2023).

Read-outs that look alike come from different tables or passages of the source.

Assay [1] deals with T1, hP2Y14R (Homo sapiens, UniProt Q15391).
T1 construct: expressed in transfected cells
T1 sequence (Q15391 1-338): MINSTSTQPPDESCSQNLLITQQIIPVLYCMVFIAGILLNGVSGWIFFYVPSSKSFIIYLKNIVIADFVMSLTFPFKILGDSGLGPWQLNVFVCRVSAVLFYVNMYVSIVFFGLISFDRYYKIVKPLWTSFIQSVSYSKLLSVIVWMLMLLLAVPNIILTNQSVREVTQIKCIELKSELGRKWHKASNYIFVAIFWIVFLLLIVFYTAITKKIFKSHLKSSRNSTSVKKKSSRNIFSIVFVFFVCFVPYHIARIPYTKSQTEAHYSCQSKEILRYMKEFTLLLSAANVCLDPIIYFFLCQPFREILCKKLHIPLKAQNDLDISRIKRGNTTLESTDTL
As to the kind of experiment: Competitive fluorescent binding assay, flow cytometry of whole hP2Y14R-CHO cells. As for the experimental part:
Cell Culture: Chinese hamster ovary cells stably expressing the hP2Y14—R (CHO-hP2Y14R) were grown in Dulbecco's Modified Eagle's Medium (DMEM)/Ham's F12 (F12) 1:1 supplemented with 10% FBS, 100 units/mL penicillin, […] streptomycin, 2 mM L-glutamine and 0.500 mg/mL G418 Sulfate (Geneticin). Cells were maintained in a humidified atmosphere and sterile incubation conditions held at 37° C. and 5% CO2 (g).
Competitive Assay: Competitive fluorescent assays were performed on a BD FACSCalibur flow cytometer in conjunction with the softwares BD Bioscience PlateManager and CellQuest. All cell culture growth and assays for this procedure were conducted on flat-bottom 96-well plates. CHO-hP2Y14R cells were grown to approximately 80-90% confluency prior to assays. The 96-well plate format enabled four compounds to be analyzed in triplicate per run. All unlabeled ligand compounds are stored as 5 mM stock solutions in dimethyl sulfoxide (DMSO). Serial dilutions of each compound were prepared in complete medium. Cells were initially incubated with unlabeled compounds for 30 min at 37° C. and 5% CO2 (g). […] After three consecutive washes in sterile 1× Dulbecco's Phosphate Buffered Saline (DPBS) minus Ca^2+/Mg^2+, cells were detached from the plate using Corning Cellstripper™ to reduce damaging the hP2Y14R protein. Final cell suspensions for flow cytometry was in DPBS minus Ca^2+/Mg^2+.
IC50 values were determined from the gathered data with the program GraphPad Prism version 7.0.
For orientation: In flow cytometry, cells or beads pass a laser one at a time.

The test system of assay [2] is eosinophils in the bronchoalveolar lavage fluid. In words: Protease-mediated mouse model of asthma. The class given is in vivo. The conditions noted are these: 10 mg/kg i.p., 30 minutes prior to ovalbumin challenge at day 14, P<0.01 vs vehicle. On the procedure: […][…] antagonists were tested in vivo in a protease-mediated mouse model of asthma and found to be effective in reducing the presence of eosinophils in the bronchoalveolar lavage fluid. The animals were first sensitized with ovalbumin/Aspergillus oryzae extract on days 0 and 7. Antagonists were injected i.p. at a dose of 10 mg/kg, 30 minutes prior to an ovalbumin challenge at day 14. […] Both […][…] antagonist effects were statistically significant (P<0.01) compared to vehicle control.

For assay [3], the target named is T2, mP2Y14R (Mus musculus, UniProt Q9ESG6).
T2 construct: expressed in transfected cells; host or cells: HEK293 cells
T2 sequence (Q9ESG6 1-338): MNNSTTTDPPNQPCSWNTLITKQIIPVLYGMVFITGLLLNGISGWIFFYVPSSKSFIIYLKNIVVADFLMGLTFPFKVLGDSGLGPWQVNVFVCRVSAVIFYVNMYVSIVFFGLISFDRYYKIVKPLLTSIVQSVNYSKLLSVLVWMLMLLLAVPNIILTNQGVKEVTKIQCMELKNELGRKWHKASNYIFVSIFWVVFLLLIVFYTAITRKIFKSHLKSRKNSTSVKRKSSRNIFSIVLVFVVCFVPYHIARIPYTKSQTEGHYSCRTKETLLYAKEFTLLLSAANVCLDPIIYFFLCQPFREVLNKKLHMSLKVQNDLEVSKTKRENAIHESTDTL
In words: Fluorescence binding method at mP2Y14R expressed in HEK293 cells. To be noted: Table 3.
From the text: This example compares inhibitory potency of antagonists at the mP2Y14R to the hP2Y14R expressed in HEK293 cells, using the fluorescence binding method.

Setting [4] is: Table 2, hP2Y14R-CHO cells, fluorescent antagonist tracer 20 nM, mean ± SEM (n = 3-5), read-out: IC50.
Setting [5] is: Table 1, hP2Y14R-CHO cells, fluorescent antagonist tracer 20 nM, mean ± SEM (n = 3-5), read-out: IC50.
Where [6] appears, read: Table 3 comparison column, values identical to Tables 1 and 2, read-out: hP2Y14R, IC50.

Consider `NC(=O)c1ccc(-c2cc(C(=O)O)cc(-c3cn(-c4ccc(C(F)(F)F)cc4)nn3)c2)cc1` [Compound 24, 4′-Carbamoyl-5-(1-(4-(trifluoromethyl)phenyl)-1H-1,2,3-triazol-4-yl)-[1,1′-biphenyl]-3-carboxylic acid], for which the 50% inhibitory concentration (IC50) in assay [1] (setting [4]) worked out at 1680 ± 380 nM. Consider `CCCN1CCC(c2ccc(-c3cc(C(=O)O)cc4cc(-c5ccc(C(F)(F)F)cc5)ccc34)cc2)CC1` [Compound 7, 4-(4-(1-Propylpiperidin-4-yl)phenyl)-7-(4-(trifluoromethyl)phenyl)-2-naphthoic acid], for which, in assay [1] (setting [5]), the IC50 was determined as 133 ± 111 nM. For the compound `N#Cc1cc(-c2ccc(C3CCNCC3)cc2)cc(-n2cc(-c3ccc(C(F)(F)F)cc3)nn2)c1` [Compound 16, 4′-(Piperidin-4-yl)-5-(4-(4-(trifluoromethyl)phenyl)-1H-1,2,3-triazol-1-yl)-[1,1′-biphenyl]-3-carbonitrile], in assay [1] (setting [5]), the IC50 amounted to 42100 ± 8400 nM. `CC(C)(C)OC(=O)N1CCC(c2ccc(-c3cc(C(=O)O)cc4cc(-c5ccc(C(F)(F)F)cc5)ccc34)cc2)CC1` [Compound 10, 4-(4-(1-(tert-butoxycarbonyl)piperidin-4-yl)phenyl)-7-(4-(trifluoromethyl)phenyl)-2-naphthoic acid]: in assay [1] (setting [5]), the IC50 came out at 2440 ± 1540 nM. For the compound `NCCCNC(=O)c1ccc(-c2cc(C(=O)O)cc(-n3cc(-c4ccc(C(F)(F)F)cc4)nn3)c2)s1` [Compound 23], in assay [2], the “eosinophils in the bronchoalveolar lavage fluid, normalized and compared to vehicle (100±15%)” value came out at 40.3±11.0%. Regarding `O=C(O)c1[nH]c(-c2ccc(C3=CCNCC3)cc2)cc1-n1cc(-c2ccc(C(F)(F)F)cc2)nn1` [Compound 33, 5-(4-(1,2,3,6-Tetrahydropyridin-4-yl)phenyl)-3-(4-(4-(trifluoromethyl)phenyl)-1H-1,2,3-triazol-1-yl)-1H-pyrrole-2-carboxylic acid], the IC50 in assay [1] (setting [4]) was over 100000 nM.

`NC(=O)c1ccc(-c2cc(NC(=O)c3ccc(C(F)(F)F)cc3)cc(C(=O)O)c2)cc1` [Compound 27, 4′-Carbamoyl-5-(4-(trifluoromethyl)benzamido)-[1,1′-biphenyl]-3-carboxylic acid]: the IC50 in assay [1] (setting [4]) is 3050 ± 210 nM. Consider `O=C(O)c1cc(-c2ccc(C34CCN(CC3)CC4)cc2)c2ccc(-c3ccc(C(F)(F)F)cc3)cc2c1` [Compound 17, 4-(4-(Quinuclidin-4-yl)phenyl)-7-(4-(trifluoromethyl)phenyl)-2-naphthoic acid], for which the 50% inhibitory concentration (IC50) in assay [1] (setting [5]) was determined as 20 ± 4.4 nM. `O=C(O)c1cc(-c2ccc(C3CCNCC3)cc2)c2nc(-c3ccc(C(F)(F)F)cc3)[nH]c2c1` [Compound 35, 4-(4-(Piperidin-4-yl)phenyl)-2-(4-(trifluoromethyl)phenyl)-1H-benzo[d]imidazole-6-carboxylic acid]: the IC50 in assay [1] (setting [4]) was over 100000 nM. For `O=C(O)c1cc(-c2ccc(C3CCNCC3)cc2)cc(-c2cn(-c3ccc(C(F)(F)F)cc3)nn2)c1` [Compound 25, 4′-(Piperidin-4-yl)-5-(1-(4-(trifluoromethyl)phenyl)-1H-1,2,3-triazol-4-yl)-[1,1′-biphenyl]-3-carboxylic acid], the IC50 in assay [1] (setting [4]) and in assay [1] (setting [6]) was 644 ± 175 nM in each case. For `NCCOCCOCCOCCOCCOCCOCCC(=O)N1CCC(c2ccc(-c3cc(C(=O)O)cc4cc(-c5ccc(C(F)(F)F)cc5)ccc34)cc2)CC1` [Compound 12, 4-(4-(1-(1-Amino-3,6,9,12,15,18-hexaoxahenicosan-21-oyl)piperidin-4-yl)phenyl)-7-(4-(trifluoromethyl)phenyl)-2-naphthoic acid], the IC50 in assay [1] (setting [5]) is 963 ± 417 nM. In the case of `O=C(O)c1cc(-c2ccc(C34CCNCC3C4)cc2)cc(-n2cc(-c3ccc(C(F)(F)F)cc3)nn2)c1` (stereo not shown) [Compound 18, 4′-(3-Azabicyclo[4.1.0]heptan-6-yl)-5-(4-(4-(trifluoromethyl)phenyl)-1H-1,2,3-triazol-1-yl)-[1,1′-biphenyl]-3-carboxylic acid], in assay [1] (setting [5]), the half-inhibitory concentration (IC50) is about 400 nM. For the compound `CN1CCC(c2ccc(-c3cc(C(=O)O)cc4cc(-c5ccc(C(F)(F)F)cc5)ccc34)cc2)CC1` [Compound 5, 4-(4-(1-Methylpiperidin-4-yl)phenyl)-7-(4-(trifluoromethyl)phenyl)-2-naphthoic acid], in assay [1] (setting [5]), the IC50 is 195 ± 120 nM. `O=C(O)c1cc(-c2ccc(N3CCNCC3)cc2)cc(-n2cc(-c3ccc(C(F)(F)F)cc3)nn2)c1` [Compound 4, 4′-(Piperazin-1-yl)-5-(4-(4-(trifluoromethyl)phenyl)-1H-1,2,3-triazol-1-yl)-[1,1′-biphenyl]-3-carboxylic acid]: the IC50 was found to be 499 ± 57 nM in assay [3] and 233 ± 26 nM in assay [1] (setting [6]). Take `CCCCCCN1CCC(c2ccc(-c3cc(C(=O)O)cc4cc(-c5ccc(C(F)(F)F)cc5)ccc34)cc2)CC1` [Compound 9, 4-(4-(1-Hexylpiperidin-4-yl)phenyl)-7-(4-(trifluoromethyl)phenyl)-2-naphthoic acid]: the IC50 in assay [1] (setting [5]) was 131 ± 11 nM.

Consider `O=C(O)c1cc(-c2ccc(C3CCNCC3)cc2)c2ccc(-c3ccc(C(F)(F)F)cc3)cc2c1` [Compound 1], for which, in assay [2], the “eosinophils in the bronchoalveolar lavage fluid, normalized and compared to vehicle (100±15%)” value amounted to 43.9±12.8%. Regarding `NC(=O)c1ccc(-c2cc(C(=O)O)cc(C(=O)Nc3ccc(C(F)(F)F)cc3)c2)cc1` [Compound 29, 4′-Carbamoyl-5-((4-(trifluoromethyl)phenyl)carbamoyl)-[1,1′-biphenyl]-3-carboxylic acid], in assay [1] (setting [4]), the IC50 came to 6040 ± 810 nM. Take `NC(=O)c1cc(-c2ccc(C3CCNCC3)cc2)cc(-n2cc(-c3ccc(C(F)(F)F)cc3)nn2)c1` [Compound 15, 4′-(Piperidin-4-yl)-5-(4-(4-(trifluoromethyl)phenyl)-1H-1,2,3-triazol-1-yl)-[1,1′-biphenyl]-3-carboxamide]: the IC50 in assay [1] (setting [5]) is over 100000 nM. Take `C#CCN1CCC(c2ccc(-c3cc(C(=O)O)cc4cc(-c5ccc(C(F)(F)F)cc5)ccc34)cc2)CC1` [Compound 6, 4-(4-(1-(Prop-2-yn-1-yl)piperidin-4-yl)phenyl)-7-(4-(trifluoromethyl)phenyl)-2-naphthoic acid]: the half-maximal inhibitory concentration (IC50) in assay [1] (setting [5]) stood at 139 ± 19 nM.

For the compound `NCCCNC(=O)c1ccc(-c2cc(C(=O)O)cc(-c3cn(-c4ccc(C(F)(F)F)cc4)nn3)c2)s1` [Compound 26, 3-(5-((3-Aminopropyl)carbamoyl)thiophen-2-yl)-5-(1-(4-(trifluoromethyl)phenyl)-1H-1,2,3-triazol-4-yl)benzoic acid], the half-maximal inhibitory concentration (IC50) in assay [1] (setting [4]) is 2600 ± 560 nM.

The term IC50 denotes the concentration needed to halve the response being measured.
